Patent US20240415809A1, “PHARMACEUTICAL COMBINATIONS” (ZYDUS LIFESCIENCES LIMITED, priority 2021, published 2024)

Assays:
Assay type in all cases: in vivo
[1] = test system: DSS induced ulcerative colitis in C57 mice; test: Apremilast and Rifaximin alone and in combination in DSS induced ulcerative colitis in C57 mice (Example 7); details: for % change in DAI vs DSS vehicle control / % change in bleeding score vs DSS vehicle control / The rectal bleeding score, Day-6 / The disease activity index (DAI) score, Day-6: Day-6, Rifaximin 19 mg/kg p.o., Apremilast 12.5 mg/kg p.o., alone or combined, once a day for six days; for The disease activity index (DAI) score, Day-6: 2.5% DSS; for improvement in disease activity index (DAI) score: Example 7, Apremilast human equivalent mice dose, low dose of Rifaximin
From the text: (§1) In this study, we have used human equivalent mice dose of Apremilast and very ( 1/18th-fold) low dose of Rifaximin in animal model, which is DSS (Dextran sulfate sodium) induced ulcerative colitis in C57 mice (Br J Pharmacol. 2019 July; 176 (13): 2209-2226. doi: 10.1111/bph.14667. Epub 2019 May 17). The colitis induced by DSS, presents good reproducibility and also mimics clinical symptoms, inflammatory markers and histopathological features which is similar to IBD in humans (Cell Mol Gastroenterol Hepatol. 2015 Mar. 1; 1 (2): 154-170. doi: 10.1016/j.jcmgh.2015.01.006., Arq Gastroenterol. 2014 April-June; 51 (2): 107-12. doi: 10.1590/s0004-28032014000200007. PMID: 25003261).
(§2) C57 mice of 10-12 weeks age were used for this study. On the day of study initiation (day-0) animals were randomized based on their body weight in to different treatment groups as below:
(§3) On day-0 animals were randomized based on body weight and from the same day onwards animals were administered with 2.5% DSS in RO water along with the test compounds till day-6.
(§4) The test compounds were formulated in Tween 80 and 0.5% Na. CMC in (0.5:99.50%) ratio and oral administration was done once a day for six days. During the duration of the experiment, a disease activity index (DAI) score was assessed to evaluate the clinical progression of ulcerative colitis. The DAI was calculated by grading on a scale of 0-5 using the following parameters: loss of body weight (0=normal; 1=0-5%; 2=6-10%; 3=11-15%; 4=16-20%, 5=>20%), stool consistency (0=normal; 1=soft stools; 2=loose stools; 3=watery diarrhea) and rectal bleeding (0=none; 2=presence of hemoccult; 4=severe bleeding). (Ref: Cytokine 2014, 66, 30-39).
(§5) On the day of termination (Day-6), DAI score was assessed followed by nonfasted blood collection. Then animals were sacrificed and relevant tissues were collected in 10% formalin for histological analysis or snap frozen in liquid nitrogen for other assays.
(§6) With the help of MS Excel, percent change vs disease control (DSS vehicle control) in various parameters were calculated and statistical analysis was performed using graph pad prism software.

[2] = test system: DSS induced ulcerative colitis in C57 mice; test: Apremilast and Rifaximin alone and as fixed dose combination (FDC) in DSS induced ulcerative colitis in C57 mice (Example 8); details: for % change in DAI vs DSS vehicle control / % change in bleeding score vs DSS vehicle control / The rectal bleeding score, Day-6 / The disease activity index (DAI) score, Day-6: Day-6, Rifaximin 102.8 mg/kg p.o. BID, Apremilast 2.1 mg/kg p.o. BID, alone or combined; for The disease activity index (DAI) score, Day-6: six days, 2.5% DSS; for improvement in disease activity index (DAI) score / improvement in rectal bleeding: Example 8, Apremilast equivalent to 10 mg, Rifaximin equivalent to 500 mg human dose
Description: In this study, we have used Apremilast which is equivalent to 10 mg of human dose and Rifaximin which is equivalent to 500 mg of human dose in animal model, which is DSS (Dextran sulfate sodium) induced ulcerative colitis in C57 mice (Br J Pharmacol. 2019 July; 176 (13): 2209-2226. doi: 10.1111/bph.14667. Epub 2019 May 17). The colitis induced by
C57 mice of 9-10 weeks age were used for this study. On the day of study initiation (day-0) animals were randomized based on their body weight in to different treatment groups as below:
On day-0 animals were randomized based on body weight and from the same day onwards animals were administered with 2.5% DSS in RO water along with the test compounds till day-6. The test compounds were formulated in Tween 80 and 0.5% Na. CMC in (0.5:99.50%) ratio and oral administration was done twice a day for six days. During the duration of the experiment, a disease activity index (DAI) score was assessed to evaluate the clinical progression of ulcerative colitis.
The DAI was calculated by grading on a scale of 0-5 using the following parameters: loss of body weight (0=normal; 1=0-5%; 2=6-10%; 3=11-15%; 4=16-20%, 5=>20%), stool consistency (0=normal; 1=soft stools; 2=loose stools; 3=watery diarrhea) and rectal bleeding (0=none; 2=presence of hemoccult; 4=severe bleeding). (Ref: Cytokine 2014, 66, 30-39).
as §5, §6

[3] = test system: DSS induced ulcerative colitis in C57 mice; test: ADD ON effect of FDC with Mesalamine in DSS induced ulcerative colitis in C57 mice (Example 10)
Description: as §1, with “To study the ADD ON effect of FDC (combination” for “In this study, we have used human equivalent mice dose”, “Apremilast equivalent to 15 mg” for “Apremilast”, “Rifaximin equivalent to 500 mg of human dose) with mesalamine equivalent to 800 mg of human” for “very ( 1/18th-fold) low”, “dose” for “dose of Rifaximin”
as §2, §3
as §4, with “twice” for “once”
On the day of termination (Day-6), DAI score was assessed followed by nonfasted blood collection. Then animals were sacrificed, colon length was measured and then collected in 10% formalin for histological analysis or snap frozen in liquid nitrogen for other assays.
With the help of MS Excel, percent change vs disease control (DSS vehicle control) in various parameters were calculated and statistical analysis was performed using graph pad prism software. Percentage improvement of colon length was calculated by calculating the decrease in colon length due to disease from water vehicle control group and then improvement in colon length against DSS vehicle control group by considering the colon length of water vehicle control group as 100%.

[4] = Day-6, Mesalamine 164.4 mg/kg p.o. BID, FDC = Rifaximin 102.8 mg/kg + Apremilast 3.1 mg/kg p.o. BID

SMILES	% change in DAI vs DSS vehicle control [1] [%]	% change in bleeding score vs DSS vehicle control [1] [%]	The rectal bleeding score, Day-6 [1]	The disease activity index (DAI) score, Day-6 [1]	improvement in disease activity index (DAI) score [1]	% change in DAI vs DSS vehicle control [2] [%]	% change in bleeding score vs DSS vehicle control [2] [%]	The rectal bleeding score, Day-6 [2]	The disease activity index (DAI) score, Day-6 [2]	improvement in disease activity index (DAI) score [2] [%]	improvement in rectal bleeding [2] [%]	% change in DAI vs DSS vehicle control [3, 4] [%]	% improvement in colon length vs DSS vehicle control [3, 4] [%]	The Colon length, Day-6 [3, 4] [cm]	The disease activity index (DAI) score, Day-6 ([3]; Day-6, Mesalamine 164.4 mg/kg p.o. BID, FDC = Rifaximin 102.8 mg/kg + Apremilast 3.1 mg/kg p.o. BID, six days)	improvement in disease activity index (DAI) score ([3]; Mesalamine equivalent to 800 mg, FDC = Apremilast equivalent to 15 mg and Rifaximin equivalent to 500 mg of human dose) [%]
CO[C@H]1/C=C/O[C@@]2(C)Oc3c(C)c(O)c4c(O)c(c5c(nc6cc(C)ccn65)c4c3C2=O)NC(=O)/C(C)=C\C=C\[C@H](C)[C@H](O)[C@@H](C)[C@@H](O)[C@@H](C)[C@H](OC(C)=O)[C@@H]1C [Rifaximin]	−3.3 ± 11.8	−39.3 ± 16.9	1.7 ± 0.5	5.9 ± 0.7	didn't show any improvement	−17.9 ± 11.2	−16.7 ± 21.5	2.0 ± 0.5	6.4 ± 0.9	18	17					
Nc1ccc(O)c(C(=O)O)c1 [Mesalamine]												−40.2 ± 5.0	39.3 ± 11.0	6.3 ± 0.2	3.1 ± 0.3	40
CCOc1cc(C(CS(C)(=O)=O)N2C(=O)c3cccc(NC(C)=O)c3C2=O)ccc1OC (single isomer, unassigned; (+)) [Apremilast, (+)-2-[1-(3-ethoxy-4-methoxyphenyl)-2-methylsulfonylethyl]-4-acetylaminoisoindoline-1,3-dione]	−32.8 ± 16.7	−57.1 ± 21.8	1.2 ± 0.6	4.1 ± 1.0	32.8%	−11.5 ± 9.5	−16.7 ± 17.6	2.0 ± 0.4	6.9 ± 0.7	12	17					
